# Key:
# SCPMU = experiment: Example V post-emergence field trials in direct-seeded rice; type: in vivo, Schoenoplectus mucronatus; settings: foliar, field trial Italy
# Description: Multiple field trials were conducted under commercial grower field conditions in Tolima, Colombia; Thessaloniki, Greece; Bianze and Copiano, Italy; and Humphrey, Ark., USA. Trials sites were located in commercially grown fields of direct-seeded rice (Oryza sativa) using standard herbicide small plot research methodology. Plots varied from 2 to 3 meter (m)×5 to 8 m (width×length) with 4 replicates per treatment. The rice crop was grown using normal cultural practices for fertilization, seeding, watering, flooding and maintenance to ensure good growth of the crop and the weeds.
# All treatments in the field trials were applied using a backpack compressed air/gas sprayer with flat fan nozzles (80° or 110°) calibrated to apply 187 to 300 L/ha spray volume at approximately 200-400 kPa nozzle pressure. Commercially available products of cyhalofop-butyl (Clincher 180EC, Clincher 200EC, and Clincher SF (285 gr ai/L EC)) were mixed in water at appropriate formulated product rates to achieve the desired rates based on a unit area of application (hectare) to achieve the desired rates as shown. Treatments were rate at 19 to 58 days after application (DAA) as compared to the untreated control plants. Visual weed control was scored on a scale of 0 to 100 percent where 0 corresponds to no injury and 100 corresponds to complete kill. […]
# IPOHE [1] = experiment: Example V (second) postemergence foliar-applied ternary mixtures, greenhouse, direct seeded rice weeds; type: in vivo, Ipomoea hederacea Jacq.
# Description: (§1) The treated plants and control plants were placed in a greenhouse as described above and watered by sub-irrigation to prevent wash-off of the test compounds. After approximately 3 weeks, the condition of the test plants as compared with that of the untreated plants was determined visually and scored on a scale of 0 to 100 percent where 0 corresponds to no injury or growth inhibition and 100 corresponds to complete kill.
# (§2) Colby's equation was used to determine the herbicidal effects expected from the mixtures (Colby, S. R. 1967. Calculation of the synergistic and antagonistic response of herbicide combinations. Weeds 15:20-22.).
# (§3) The following equation was used to calculate the expected activity of mixtures containing three active ingredients, A, B, and C: Expected=A+B+C−((A×B+A×C+B×C)/100)+(A×B×C/10000)
# CYPES = experiment: Example I postemergence foliar-applied, greenhouse, direct seeded rice weeds; type: in vivo, Cyperus esculentus L.
# Source text: Seeds or nutlets of the desired test plant species were planted in a soil matrix prepared by mixing a loam or sandy loam soil (e.g., 28.6 percent silt, 18.8 percent clay, and 52.6 percent sand, with a pH of about 5.8 and an organic matter content of about 1.8 percent) and calcareous grit in an 80 to 20 ratio. The soil matrix was contained in plastic pots with a volume of 1 quart and a surface area of 83.6 square centimeters (cm^2). When required to ensure good germination and healthy plants, a fungicide treatment and/or other chemical or physical treatment was applied. The plants were grown for 8-22 days in a greenhouse with an approximate 14 hr. photoperiod which was maintained at about 29° C. during the day and 26° C. during the night. Nutrients (Peters Excel® 15-5-15 5-Ca 2-Mg and iron chelate) were applied in the irrigation solution as needed and water was added on a regular basis. Supplemental lighting was provided with overhead metal halide 1000-Watt lamps as necessary. The plants were employed for testing when they reached the first through fourth true leaf stage.
# Treatments consisted of the acid or esters of 4-amino-3-chloro-5-fluoro-6-(4-chloro-2-fluoro-3-methoxy-phenyl)pyridine-2-carboxylic acid (Compound A), each formulated as an SC (suspension concentrate), and various herbicidal components alone and in combination.
# Other herbicidal components were applied on an acid equivalent (ae) or active ingredient (ai) basis and included acetyl coA carboxylase (ACCase)-inhibiting herbicides (cyclohexanedione and aryloxyphenoxypropionate chemical classes) cyhalofop-butyl formulated as Clincher® SF (285 gr ai/L EC), diclofop-methyl formulated as Hoelon® 3EC, fenoxaprop-p-ethyl+isoxadifen-ethyl formulated as RiceStar® HT (0.58 lb./gal EC), fenoxaprop-p-ethyl+mefenpyr diethyl formulated as Puma® IEC, metamifop formulated as Metamifop EC, haloxyfop-methyl formulated as Gallant Super®, fluazifop-p-butyl formulated as Fusilade® DX, quizalofop-p-ethyl formulated as Assure® II, profoxydim formulated as Aura® 20EC, clethodim applied as Intensity®, sethoxydim formulated as Poast®, and tralkoxydim formulated as Achieve®.
# Treatment requirements were calculated based upon the rates being tested, the concentration of active ingredient or acid equivalent in the formulation, and a 12 mL application volume at a rate of 187 L/ha.
# For treatments comprised of formulated compounds, measured amounts of compounds were placed individually in 25 mL glass vials and diluted in a volume of 1.25% (v/v) Agri-Dex® crop oil concentrated to obtain 12× stock solutions. […] Application solutions were prepared by adding an appropriate amount of each stock solution (e.g., 1 mL) and diluted to the appropriate final concentrations with the addition of 10 mL of an aqueous mixture of 1.25% (v/v) crop oil concentrate so that the final spray solutions contained 1.25+/−0.05% (v/v) crop oil concentrate.
# (§4) All stock solutions and applications solutions were visually inspected for compound compatibility prior to application. Spray solutions were applied to the plant material with an overhead Mandel track sprayer equipped with a 8002E nozzles calibrated to deliver 187 L/ha over an application area of 0.503 m^2 at a spray height of 18 to 20 inches (46 to 50 cm) above average plant canopy height. Control plants were sprayed in the same manner with the solvent blank.
# as §1, with “kill. […]” for “kill.”
# IPOHE [2] = experiment: Example V (second) postemergence foliar-applied ternary mixtures, greenhouse, direct seeded rice weeds; type: in vivo, Ipomoea hederacea Jacq.; remark: listed apart in the source
# Source text: as §4, with “18” for “18 to 20”, “(46” for “(46 to 50”
# as §1, §2, §3
compound,measurement,setting,value
"COc1c(Cl)ccc(-c2nc(C(=O)OCc3ccccc3)c(Cl)c(N)c2F)c1F [Compound A Benzyl Ester, benzyl ester of 4-amino-3-chloro-5-fluoro-6-(4-chloro-2-fluoro-3-methoxy-phenyl)pyridine-2-carboxylic acid]",Visual Weed Control (%) - 55-58 DAA SCPMU Obs,SCPMU; 24 gae/ha,27%
same,Visual Weed Control (%) - 21 DAA IPOHE Obs,"IPOHE [1]; 2.19 gae/ha, upper sub-table",30%
same,Visual Weed Control (%) - 21 DAA IPOHE Obs,"IPOHE [1]; 4.38 gae/ha, upper sub-table",38%
same,Visual Weed Control (%) - 21 DAA IPOHE Obs,IPOHE [1]; 8 ae/ha,20%
same,Visual Weed Control (%) - 21 DAA IPOHE Obs,IPOHE [1]; 8 gae/ha,10%
same,Visual Weed Control (%) - 21 DAA IPOHE Obs,"IPOHE [1]; 8 gae/ha, lower sub-table",15%
same,Visual Weed Control (%) - 21 DAA IPOHE Obs,IPOHE [1]; 16 gae/ha,30%
same,Visual Weed Control (%) - 21 DAA IPOHE Obs,"IPOHE [1]; 16 gae/ha, lower sub-table",33%
same,Visual Weed Control (%) - 20 DAA CYPES Obs,CYPES; 4.38 gae/ha,70%
same,Visual Weed Control (%) - 20 DAA CYPES Obs,CYPES; 8 gae/ha,0%
same,Visual Weed Control (%) - 20 DAA CYPES Obs,CYPES; 8.75 gae/ha,80%
same,Visual Weed Control (%) - 20 DAA CYPES Obs,CYPES; 16 gae/ha,75%
same,Visual Weed Control (%) - 20 DAA CYPES Obs,CYPES; 17.5 gae/ha,95%
same,Visual Weed Control (%) - 21 DAA IPOHE Obs,IPOHE [2]; 8 gae/ha,15%
same,Visual Weed Control (%) - 21 DAA IPOHE Obs,IPOHE [2]; 16 gae/ha,33%
"COc1c(Cl)ccc(-c2nc(C(=O)O)c(Cl)c(N)c2F)c1F [Compound A Acid, 4-amino-3-chloro-6-(4-chloro-2-fluoro-3-methoxyphenyl)-5-fluoropyridine-2-carboxylic acid]",Visual Weed Control (%) - 20 DAA CYPES Obs,CYPES; 4.38 gae/ha,30%
same,Visual Weed Control (%) - 22 DAA CYPES Obs,CYPES; 4.38 gae/ha,50%
same,Visual Weed Control (%) - 20 DAA CYPES Obs,CYPES; 8.75 gae/ha,70%
same,Visual Weed Control (%) - 22 DAA CYPES Obs,CYPES; 8.75 gae/ha,75%
"CCCCOC(=O)[C@@H](C)Oc1ccc(Oc2ccc(C#N)cc2F)cc1 [Cyhalofop-butyl, butyl(2R)-2-[4-(4-cyano-2-fluorophenoxy)phenoxy]propanoate, reference compound]",Visual Weed Control (%) - 55-58 DAA SCPMU Obs,SCPMU; 300 gai/ha,6%
same,Visual Weed Control (%) - 21 DAA IPOHE Obs,IPOHE [1]; 17.5 gai/ha,0%
same,Visual Weed Control (%) - 21 DAA IPOHE Obs,IPOHE [1]; 35 gai/ha,0%
same,Visual Weed Control (%) - 21 DAA IPOHE Obs,"IPOHE [1]; 35 gai/ha, lower sub-table",0%
same,Visual Weed Control (%) - 21 DAA IPOHE Obs,"IPOHE [1]; 35 gai/ha, upper sub-table",0%
same,Visual Weed Control (%) - 21 DAA IPOHE Obs,IPOHE [2]; Cyhalofop-butyl 35 gai/ha,0%

# From US9232796B2, “Herbicidal compositions comprising 4-amino-3-chloro-5-fluoro-6-(4-chloro-2-fluoro-3-methoxyphenyl) pyridine-2-carboxylic acid or a derivative thereof and acetyl-CoA carboxylase (ACCase) inhibitors” (DOW AGROSCIENCES LLC, priority 2012, dated 2016)
